Test results taken from patent publication US20050220779A1, “Integrin linked kinase modulation of macrophage activation” (priority 2001, published 2005).

How the values were obtained:
RAW 264.7 cells [1] = experiment: Cell survival by crystal violet staining, RAW 264.7 cells; format: cell-based; details: 50 μM, 24 h, DMSO-treated = 100%
Procedure: (§1) Treatment of primary macrophages and RAW 264.7 cells. Primary macrophages (1.5×10^5 cells/well) and RAW 264.7 (4×10^4 cells/well) cells were grown in 96-well plates (nitrite assay), or 6-well plates (2×10^6 cells/well) for measurement of iNOS and COX-2 expression. Following 3 h incubation, at 37 C, 5% CO2 (macrophages were allowed to attach) cells were stimulated with LPS (0.5 μg/ml) and IFN-γ (100 U/ml) in the absence or presence of various concentrations of ILK inhibitors (all treatments were replicated six times). Cells were incubated for an additional 24 h, and cell free culture supernatants from each well were collected for NO and cytokine determination. The remaining cells were stained with crystal violet to determine effect of the inhibitors on cell survival.
Effect of ILK Inhibitors on suppression of NO production and cell survival. Twenty-four hours following treatment with the ILK inhibitors, aliquots from the cell-free supernatants were assayed for NO and IL-6 release. Surviving cells were stained and fixed (crystal violet 0.05% in 20% ethanol), to determine if the decrease in NO production was related to a decrease in cell number due to toxicity of the compounds. […] Only those compounds that induced strong inhibition of NO release, and caused no significant cell death were selected for further evaluation.

RAW 264.7 cells [2] = experiment: LPS-IFN-γ-induced macrophage NO production (Griess nitrite assay), RAW 264.7 cells; format: cell-based, murine; details: 24 h; for NO release (%): 50 μM, relative to DMSO treated cells; for inhibition at 50 µM: Mus musculus, RAW264.7, 50 μM
Procedure: RAW 264.7 cells. RAW 264.7 cells, a murine macrophage cell line, were obtained from American Type Culture Collection (ATCC, Manassas, Va.) and cultured in DMEM supplemented with 10% FCS. Each treatment was performed in triplicate wells. RAW 264.7 cells (Balb/c background) produce a significant amount of nitric oxide upon treatment with IFN-γ alone, but require LPS for full activation. This property makes their behavior more like that of normal macrophages obtained from commonly used strains of mice.
as §1, with “Primary macrophages (1.5×10^5 cells/well) and RAW 264.7 (4×10^4 cells/well) cells were grown in 96-well plates (nitrite assay), or 6-well plates (2×10^6 cells/well) for measurement of iNOS and COX-2 expression.” left out
NO production. Following stimulation, the production of NO was determined by assaying culture supernatants for NO2^−, a stable reaction product of NO with molecular oxygen. Briefly, 100 μl of culture supernatant was reacted with an equal volume of Griess reagent at room temperature for 10 min. The absorbance at 550 nm was determined. All measurements were performed six times. The concentration of NO2^−was calculated by comparison with a standard curve prepared using NaNO2.
Effects of ILK inhibitors on LPS-IFN-γ-induced NO release. […] […] To compare the effect of the compounds across three different cell types, the NO release for each cell type was expressed relative to DMSO treated cells.

N=C(N)N/N=C/c1ccc(Cl)cc1Cl [KP-16735]
Survival (%) (RAW 264.7 cells [1]): 51%
NO release (%) (RAW 264.7 cells [2]): 20.4%
inhibition at 50 µM (RAW 264.7 cells [2]): 73%

Oc1ccc2c(c1)CC1NCCc3cc(O)c(O)c-2c31 (stereo not drawn) [KP-21849, 5,6,6a,7-Tetrahydro-4H-dibenzo[de,g]quinoline-1,2,9-triol]
Survival (%) (RAW 264.7 cells [1]): 51%
NO release (%) (RAW 264.7 cells [2]): −0.1%
inhibition at 50 µM (RAW 264.7 cells [2]): 100%
